The nature of series [1]: Pharmacokinetic study of 435(S) and other representative compounds in chimps after oral dosing (Example 40). It counts as in vivo. As to conditions: species named in label measured in plasma. On the procedure:
435(S) and representative compounds 121(S), 137(S), 421(S) and 437(S) were separately dissolved in warm (65° C.) water at a concentration [[of 10 mg/mL]]. The same protocol described for Example 39 was then followed for each representative compound.

Series [2] in a line: Stability of compounds in rat whole blood (Example 35). It counts as in vitro ADME. The settings on record: 5 μM, 37° C., 2 hours, FIG. 3. On the procedure:
This study was performed to evaluate the stability of the title compounds in rat whole blood. Because the ketone (or keto-compound; either pentoxifylline or 409) and its corresponding M-1 alcohol metabolite interconvert, levels of these components were measured after either the keto-compound was added to the blood or the M-1 was added. In other words, in some tests the keto-compound was the starting test compound and in other tests an M-1 metabolite was the starting test compound.
Fresh rat whole blood was obtained from ViviSource Laboratories, Waltham, Mass. Stock solutions (7.5 millimolar (mM)) of test compounds were prepared in dimethyl sulfoxide (DMSO). The 7.5 mM stock solutions were diluted to 500 micromolar (μM) in acetonitrile (ACN). To 990 microliters (μL) of blood pre-warmed to 37° C. for 7 minutes was added 10 μl, of 500 μM test compound to a final concentration of 5 μM. The test compounds were pentoxifylline, (S)-M1 metabolite of pentoxifylline, (R)-M1 metabolite of pentoxifylline, Compound 409, Compound 435(S), and Compound 435(R). The latter two test compounds are deuterated (S)-M1 and (R)-M1 metabolites, respectively, of Compound 409. The reaction mixture was incubated at 37° C. Aliquots (50 μL) were removed at 0 min, 5 min, 15 min, 30 min, 1 hour and 2 hours following the addition of test compound and added to 96-well plates containing 150 μL of ice cold acetonitrile with an internal standard to stop the reaction. The plates were stored at −20° C. for 20 minutes after which 100 μL of 50% acetonitrile/water was added to the wells of the plate prior to centrifugation to pellet precipitated proteins. A 200-μL aliquot of each supernatant was transferred to another 96-well plate and analyzed by LC-MS/MS using an Applied Bio-systems API 4000 mass spectrometer for amounts of the administered compound and its specific metabolite listed in Table 11 below.
The results of this study are depicted in FIGS. 2 and 3.

The nature of series [3]: Compound stability in human liver microsomes (Example 36). It counts as in vitro ADME. The settings on record: 30 minutes. On the procedure: Example 36 is similar to Example 35 in design, except that human liver microsomes were used instead of rat whole blood to study the metabolism of the compounds.
Human liver microsomes (20 mg/mL) were obtained from Xenotech, LLC (Lenexa, Kans.). β-nicotinamide adenine dinucleotide phosphate, reduced form (NADPH), magnesium chloride (MgCl2), and dimethyl sulfoxide (DMSO) were purchased from Sigma-Aldrich.
Stock solutions containing 7.5 mM of test compounds (pentoxifylline, (S)-M1 metabolite, (R)-M1 metabolite, Compound 409, Compound 435(S), and Compound 435(R)) were prepared in DMSO. The 7.5-mM stock solutions were diluted to 250 μM in acetonitrile (ACN). The human liver microsomes were diluted to 2.5 mg/mL in 0.1 M potassium phosphate buffer, pH 7.4, containing 3 mM MgCl2. The diluted microsomes were added to wells of a 96-well deep-well polypropylene plate in triplicate. 10 μL of the 250 μM test compound was added to the microsomes and the mixture was pre-warmed to 37° C. for 10 minutes. Reactions were initiated by addition of pre-warmed NADPH solution. The final reaction volume was 0.5 mL and contained 2.0 mg/mL human liver microsomes, 5 μM test compound, and 2 mM NADPH in 0.1M potassium phosphate buffer, pH 7.4, and 3 mM MgCl2. The reaction mixtures were incubated at 37° C., and 50-μL aliquots were removed at 0, 5, 10, 20, and 30 minutes and added to shallow-well 96-well plates which contained 50 μL of ice-cold acetonitrile with internal standard to stop the reactions. The plates were stored at 4° C. for 20 minutes after which 100 μL of water was added to the wells of the plate before centrifugation to pellet precipitated proteins. Supernatants were transferred to another 96-well plate and analyzed for the amount of the administered compound and its specific metabolite (listed in Table 11 above) by LC-MS/MS using an Applied Bio-systems API 4000 mass spectrometer.
The results of this study are depicted in FIGS. 4 and 5. […]

Setting [4] is: female, plasma, po, 65 mg, Table 17 i): female chimp, 435(S) and 121(S), read-out: AUC0-12 Female.
[5] abbreviates: female, plasma, po, 65 mg, Table 17 ii): female chimp, 435(S) and 137(S), read-out: AUC0-12 Female.
[6] abbreviates: female, plasma, po, 65 mg, Table 17 iii): female chimp, 435(S) and 421(S), read-out: AUC0-12 Female.
The mark [7] stands for this setting: female, plasma, po, 65 mg, Table 17 iv): female chimp, 435(S) and 437(S), read-out: AUC0-12 Female.
Where [8] appears, read: male, plasma, po, 65 mg, Table 17 i): male chimp, 435(S) and 121(S), read-out: AUC0-12 Male.
Setting [9] is: male, plasma, po, 65 mg, Table 17 ii): male chimp, 435(S) and 137(S), read-out: AUC0-12 Male.
[10] abbreviates: male, plasma, po, 65 mg, Table 17 iii): male chimp, 435(S) and 421(S), read-out: AUC0-12 Male.
The mark [11] stands for this setting: male, plasma, po, 65 mg, Table 17 iv): male chimp, 435(S) and 437(S), read-out: AUC0-12 Male.

Each structure is given as a SMILES string. Read-outs that look alike come from different tables or passages of the source.

`[2H]c1nc2c(c(=O)n(CCCC(=O)O)c(=O)n2C)n1C([2H])([2H])[2H]` [Deuterated M5 (M5a)]: the AUC(0-t) in series [1] (setting [4]) is 670 ng·h/mL; in series [1] (setting [5]), 754 ng·h/mL; in series [1] (setting [6]), 376 ng·h/mL; in series [1] (setting [7]), 306 ng·h/mL; in series [1] (setting [8]), 585 ng·h/mL; in series [1] (setting [9]), 719 ng·h/mL. Further, the AUC(0-t) stood at 500 ng·h/mL in series [1] (setting [10]) and 562 ng·h/mL in series [1] (setting [11]).

As for `[2H]c1nc2c(c(=O)n(CCCC([2H])([2H])[C@@]([2H])(O)C([2H])([2H])[2H])c(=O)n2C)n1C([2H])([2H])[2H]` [Compound 435(S), (S)-8-d1-1-(4,4,5,6,6,6-d6-5-Hydroxyhexyl)-3-methyl-7-(methyl-d3)-1H-purine-2,6(3H,7H)-dione], the “Keto-compound (pentoxifylline or Compound 409) formed from M-1 alcohol” value in series [2] is “not detected”. For the same compound, the AUC(0-t) in series [1] (setting [4]) turned out to be 133 ng·h/mL; in series [1] (setting [5]), 243 ng·h/mL; in series [1] (setting [6]), 947 ng·h/mL; in series [1] (setting [7]), 1140 ng·h/mL; in series [1] (setting [8]), 354 ng·h/mL; in series [1] (setting [9]), 100 ng·h/mL. For the same compound, the values for the AUC(0-t) in series [1] (setting [10]) and in series [1] (setting [11]) were 881 ng·h/mL and 686 ng·h/mL, respectively.

As for `C[C@H](O)CCCCn1c(=O)c2c(ncn2C)n(C)c1=O` [(S)-M1, reference compound], the “Keto-compound (pentoxifylline or Compound 409) formed from M-1 alcohol” value in series [2] is listed as “appreciable amount of pentoxifylline present”; in series [3] (human liver microsomes 2.0 mg/mL, 5 μM, NADPH, FIG. 5 columns C and D), “significant amount of pentoxifylline present”. For the same compound, the “More pentoxifylline produced from (S)-M1 than Compound 409 produced from Compound 435 (S)” value in series [3] (human liver microsomes) is given as “Approximately 30%”.

The values are drawn from patent US8263601B2, “Deuterium substituted xanthine derivatives” (CoNCERT Pharmaceuticals, Inc., priority 2009, dated 2012).
